Values of other authors, collected in patent US6344179B1, “Fluoralkenyl nortropanes” (Emory University, priority 1999, dated 2002).

Tests used:
DAT [1] = settings: non-human primates, within 2 h post injection; cited from earlier work
DAT [2] = settings: cited from earlier work

Structure (SMILES): COC(=O)C1C(c2ccc(Cl)cc2)CC2CCC1N2C/C=C/[123I] (centres unmarked) [MMG/142, IPT]
- striatal to cerebellum ratios (DAT [1]): 15 to 1
- in vitro selectivity (DA/5-HT) (DAT [2]): ~7
